Assays:
[1] = biological target: Mitogen-activated protein kinase 3 (Homo sapiens) (UniProt P27361); conditions: Compound concentration 1000.0 nM
[2] = biological target: Serine/threonine-protein kinase BRSK1 (Homo sapiens) (UniProt Q8TDC3); conditions: Compound concentration 1000.0 nM
[3] = biological target: Serine/threonine-protein kinase 33 (Homo sapiens) (UniProt Q9BYT3); conditions: Compound concentration 1000.0 nM
[4] = biological target: Serine/threonine-protein kinase 38-like (Homo sapiens) (UniProt Q9Y2H1); conditions: Compound concentration 1000.0 nM
[5] = biological target: MAP/microtubule affinity-regulating kinase 3 (Homo sapiens) (UniProt P27448); conditions: Compound concentration 1000.0 nM
[6] = tested on: Tyrosine-protein kinase ABL1 (Homo sapiens), P00519 [F317I]; conditions: Compound concentration 1000.0 nM
[7] = biological target: Phosphatidylinositol 3-kinase C2 domain-containing subunit gamma (Homo sapiens) (UniProt O75747); conditions: Compound concentration 1000.0 nM
[8] = biological target: Activin receptor type-2A (Homo sapiens) (UniProt P27037); conditions: Compound concentration 1000.0 nM
[9] = biological target: Interferon-induced, double-stranded RNA-activated protein kinase (Homo sapiens) (UniProt P19525); conditions: Compound concentration 1000.0 nM
[10] = biological target: Serine/threonine-protein kinase STK11 (Homo sapiens) (UniProt Q15831); conditions: Compound concentration 1000.0 nM
[11] = biological target: Serine/threonine-protein kinase SIK1 (Homo sapiens) (UniProt P57059); conditions: Compound concentration 1000.0 nM
[12] = tested on: Proto-oncogene tyrosine-protein kinase receptor Ret (Homo sapiens), P07949 [M918T]; conditions: Compound concentration 1000.0 nM
[13] = biological target: Serine/threonine-protein kinase 32C (Homo sapiens) (UniProt Q86UX6); conditions: Compound concentration 1000.0 nM
[14] = biological target: 5-hydroxytryptamine receptor 2C (Homo sapiens) (UniProt P28335); conditions: Compound concentration 10.0 uM
[15] = biological target: D(2) dopamine receptor (Homo sapiens) (UniProt P14416); conditions: Compound concentration 10.0 uM
[16] = biological target: D(1B) dopamine receptor (Homo sapiens) (UniProt P21918); conditions: Compound concentration 10.0 uM
[17] = biological target: Beta-3 adrenergic receptor (Homo sapiens) (UniProt P13945); conditions: Compound concentration 10.0 uM
[18] = biological target: Phosphatidylinositol 4,5-bisphosphate 3-kinase catalytic subunit delta isoform (Homo sapiens) (UniProt O00329); conditions: Compound concentration 1000.0 nM
[19] = biological target: Alpha-1A adrenergic receptor (Homo sapiens) (UniProt P35348); conditions: Compound concentration 10.0 uM
[20] = biological target: Serine/threonine-protein kinase Nek3 (Homo sapiens) (UniProt P51956); conditions: Compound concentration 1000.0 nM

Sequence of MAP/microtubule affinity-regulating kinase 3 (Homo sapiens) (P27448 whole entry, looked up): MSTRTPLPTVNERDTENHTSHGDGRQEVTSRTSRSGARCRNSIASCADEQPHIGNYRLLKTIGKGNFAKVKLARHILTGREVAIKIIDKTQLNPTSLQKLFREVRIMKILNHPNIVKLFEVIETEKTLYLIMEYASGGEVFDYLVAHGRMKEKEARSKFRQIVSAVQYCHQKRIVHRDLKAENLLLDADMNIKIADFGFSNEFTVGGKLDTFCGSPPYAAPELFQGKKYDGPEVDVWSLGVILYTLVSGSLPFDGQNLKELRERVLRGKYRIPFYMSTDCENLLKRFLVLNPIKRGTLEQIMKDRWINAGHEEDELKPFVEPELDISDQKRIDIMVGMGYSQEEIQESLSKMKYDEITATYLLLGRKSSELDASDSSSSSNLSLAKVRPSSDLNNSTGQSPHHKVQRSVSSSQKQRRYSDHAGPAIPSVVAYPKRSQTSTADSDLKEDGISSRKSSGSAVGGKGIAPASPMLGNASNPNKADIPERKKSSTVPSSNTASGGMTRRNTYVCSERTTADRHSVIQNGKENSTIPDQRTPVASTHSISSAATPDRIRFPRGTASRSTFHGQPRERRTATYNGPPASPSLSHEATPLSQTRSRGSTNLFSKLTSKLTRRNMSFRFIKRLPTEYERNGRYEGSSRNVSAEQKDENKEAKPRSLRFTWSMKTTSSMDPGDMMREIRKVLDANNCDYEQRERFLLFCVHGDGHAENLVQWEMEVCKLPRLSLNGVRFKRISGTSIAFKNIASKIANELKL
Sequence of Serine/threonine-protein kinase 32C (Homo sapiens) (Q86UX6 whole entry): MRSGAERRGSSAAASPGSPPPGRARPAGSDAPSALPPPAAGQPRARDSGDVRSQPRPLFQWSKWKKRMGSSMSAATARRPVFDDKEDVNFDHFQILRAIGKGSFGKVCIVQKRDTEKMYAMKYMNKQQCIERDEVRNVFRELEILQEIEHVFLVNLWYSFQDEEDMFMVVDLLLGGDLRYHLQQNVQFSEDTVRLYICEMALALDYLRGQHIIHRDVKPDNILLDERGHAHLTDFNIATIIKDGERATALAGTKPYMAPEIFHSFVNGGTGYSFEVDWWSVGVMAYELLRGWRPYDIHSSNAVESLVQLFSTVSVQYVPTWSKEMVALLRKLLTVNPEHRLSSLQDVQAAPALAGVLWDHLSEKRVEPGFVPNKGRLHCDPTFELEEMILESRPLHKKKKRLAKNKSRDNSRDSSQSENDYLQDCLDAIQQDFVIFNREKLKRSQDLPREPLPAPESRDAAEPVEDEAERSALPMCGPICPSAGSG
Sequence of Serine/threonine-protein kinase SIK1 (Homo sapiens) (P57059 whole entry): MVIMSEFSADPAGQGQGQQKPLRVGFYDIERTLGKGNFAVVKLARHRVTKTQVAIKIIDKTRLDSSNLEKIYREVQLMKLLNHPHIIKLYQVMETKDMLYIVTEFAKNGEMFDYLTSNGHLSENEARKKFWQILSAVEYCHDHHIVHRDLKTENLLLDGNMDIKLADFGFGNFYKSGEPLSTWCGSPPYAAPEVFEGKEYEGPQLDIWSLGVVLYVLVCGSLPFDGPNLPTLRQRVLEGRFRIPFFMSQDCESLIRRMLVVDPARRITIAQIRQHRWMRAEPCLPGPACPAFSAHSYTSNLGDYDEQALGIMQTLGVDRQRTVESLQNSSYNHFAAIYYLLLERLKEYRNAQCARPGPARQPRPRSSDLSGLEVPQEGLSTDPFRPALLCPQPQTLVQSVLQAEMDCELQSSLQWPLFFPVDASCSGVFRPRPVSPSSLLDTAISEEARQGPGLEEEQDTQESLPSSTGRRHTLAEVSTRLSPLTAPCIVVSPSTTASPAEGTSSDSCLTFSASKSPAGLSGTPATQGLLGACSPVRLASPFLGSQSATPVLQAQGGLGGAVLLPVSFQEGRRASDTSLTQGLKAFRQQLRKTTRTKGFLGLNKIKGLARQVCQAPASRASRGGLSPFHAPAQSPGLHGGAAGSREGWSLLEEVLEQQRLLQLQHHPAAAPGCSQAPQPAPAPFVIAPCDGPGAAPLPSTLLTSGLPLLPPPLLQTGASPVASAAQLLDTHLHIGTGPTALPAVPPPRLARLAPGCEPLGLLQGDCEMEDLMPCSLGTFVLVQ
Sequence of Tyrosine-protein kinase ABL1 (Homo sapiens), P00519 [F317I] (P00519 whole entry F317I, the tested form may be a part): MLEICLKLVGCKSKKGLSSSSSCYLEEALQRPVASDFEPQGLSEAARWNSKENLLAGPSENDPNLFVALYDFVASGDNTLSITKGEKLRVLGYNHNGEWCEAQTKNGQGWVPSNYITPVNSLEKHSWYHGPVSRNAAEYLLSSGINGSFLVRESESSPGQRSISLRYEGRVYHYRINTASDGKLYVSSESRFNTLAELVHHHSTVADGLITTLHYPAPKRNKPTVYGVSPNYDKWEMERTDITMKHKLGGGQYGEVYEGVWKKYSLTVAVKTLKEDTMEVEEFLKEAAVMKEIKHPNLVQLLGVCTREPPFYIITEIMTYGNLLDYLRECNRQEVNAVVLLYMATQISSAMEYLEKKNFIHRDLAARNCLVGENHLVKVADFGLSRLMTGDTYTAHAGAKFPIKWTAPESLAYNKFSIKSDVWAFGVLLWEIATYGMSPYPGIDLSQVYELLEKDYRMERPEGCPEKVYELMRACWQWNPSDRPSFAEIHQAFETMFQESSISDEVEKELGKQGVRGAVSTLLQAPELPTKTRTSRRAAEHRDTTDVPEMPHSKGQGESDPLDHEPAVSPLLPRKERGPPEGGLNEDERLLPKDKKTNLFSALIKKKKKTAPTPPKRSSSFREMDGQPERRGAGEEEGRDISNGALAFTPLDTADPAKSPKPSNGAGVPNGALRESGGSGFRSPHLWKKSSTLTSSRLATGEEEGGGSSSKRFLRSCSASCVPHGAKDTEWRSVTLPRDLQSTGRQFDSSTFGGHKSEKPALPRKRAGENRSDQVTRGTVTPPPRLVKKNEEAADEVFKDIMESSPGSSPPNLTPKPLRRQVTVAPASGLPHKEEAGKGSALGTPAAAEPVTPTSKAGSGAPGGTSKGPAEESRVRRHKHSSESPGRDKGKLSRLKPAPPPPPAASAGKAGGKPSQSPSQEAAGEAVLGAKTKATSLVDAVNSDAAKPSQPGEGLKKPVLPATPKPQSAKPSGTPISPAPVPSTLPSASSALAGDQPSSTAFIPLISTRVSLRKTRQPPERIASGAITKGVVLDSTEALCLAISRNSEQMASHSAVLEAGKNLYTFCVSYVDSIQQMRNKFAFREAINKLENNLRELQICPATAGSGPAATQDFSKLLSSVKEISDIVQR
Sequence of Activin receptor type-2A (Homo sapiens) (P27037 whole entry): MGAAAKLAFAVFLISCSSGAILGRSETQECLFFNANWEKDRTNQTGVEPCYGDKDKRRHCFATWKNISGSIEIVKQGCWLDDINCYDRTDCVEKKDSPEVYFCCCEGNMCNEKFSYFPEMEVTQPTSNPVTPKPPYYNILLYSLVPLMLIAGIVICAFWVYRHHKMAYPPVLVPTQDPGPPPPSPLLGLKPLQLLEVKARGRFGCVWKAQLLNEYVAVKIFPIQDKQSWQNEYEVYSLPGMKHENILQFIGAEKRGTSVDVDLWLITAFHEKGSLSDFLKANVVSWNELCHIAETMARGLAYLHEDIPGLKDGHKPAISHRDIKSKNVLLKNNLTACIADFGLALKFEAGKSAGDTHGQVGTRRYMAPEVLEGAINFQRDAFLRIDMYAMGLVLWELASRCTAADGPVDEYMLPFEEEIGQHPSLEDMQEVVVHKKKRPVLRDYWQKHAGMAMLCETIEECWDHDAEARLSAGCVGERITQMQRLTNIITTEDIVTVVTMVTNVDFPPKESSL
Sequence of Serine/threonine-protein kinase BRSK1 (Homo sapiens) (Q8TDC3 whole entry): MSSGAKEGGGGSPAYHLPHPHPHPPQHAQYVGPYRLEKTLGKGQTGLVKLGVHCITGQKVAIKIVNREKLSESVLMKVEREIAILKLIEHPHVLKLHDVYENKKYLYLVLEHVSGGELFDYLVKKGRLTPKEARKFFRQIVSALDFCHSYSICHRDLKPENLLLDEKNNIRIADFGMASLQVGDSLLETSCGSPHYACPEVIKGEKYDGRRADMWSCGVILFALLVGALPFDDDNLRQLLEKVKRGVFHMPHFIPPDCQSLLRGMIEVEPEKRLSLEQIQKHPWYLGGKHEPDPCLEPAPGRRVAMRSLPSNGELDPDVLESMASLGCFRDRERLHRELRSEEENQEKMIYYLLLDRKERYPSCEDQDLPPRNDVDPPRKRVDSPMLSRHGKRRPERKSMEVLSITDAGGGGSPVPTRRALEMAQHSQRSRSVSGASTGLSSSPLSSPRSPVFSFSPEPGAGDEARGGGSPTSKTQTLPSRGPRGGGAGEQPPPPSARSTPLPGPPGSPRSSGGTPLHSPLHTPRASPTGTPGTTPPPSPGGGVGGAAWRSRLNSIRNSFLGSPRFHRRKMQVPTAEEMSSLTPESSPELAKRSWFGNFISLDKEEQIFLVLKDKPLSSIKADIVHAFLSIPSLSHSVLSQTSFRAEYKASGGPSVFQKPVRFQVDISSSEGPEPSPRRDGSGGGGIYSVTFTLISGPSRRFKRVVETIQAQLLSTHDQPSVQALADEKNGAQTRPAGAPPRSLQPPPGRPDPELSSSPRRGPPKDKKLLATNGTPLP
Sequence of Mitogen-activated protein kinase 3 (Homo sapiens) (P27361 whole entry): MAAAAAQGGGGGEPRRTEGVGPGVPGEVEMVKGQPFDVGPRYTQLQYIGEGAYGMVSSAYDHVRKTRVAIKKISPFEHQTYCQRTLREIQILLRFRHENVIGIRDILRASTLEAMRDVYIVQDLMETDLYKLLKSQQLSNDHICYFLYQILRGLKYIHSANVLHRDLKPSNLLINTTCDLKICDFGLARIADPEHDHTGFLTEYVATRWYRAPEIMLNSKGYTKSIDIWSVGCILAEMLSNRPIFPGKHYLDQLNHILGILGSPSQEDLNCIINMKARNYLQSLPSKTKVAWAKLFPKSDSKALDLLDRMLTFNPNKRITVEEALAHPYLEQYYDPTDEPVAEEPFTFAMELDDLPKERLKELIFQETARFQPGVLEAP

N#Cc1ccc(Nc2ccc3[nH]c(=O)[nH]c3c2)c(Cl)c1
inactive: residual activity [1] 95% | residual activity [2] 100% | residual activity [3] 93% | residual activity [4] 53% | residual activity [5] 100% | residual activity [6] 81% | residual activity [7] 95% | residual activity [8] 70% | residual activity [9] 57% | residual activity [10] 100% | residual activity [11] 100% | residual activity [12] 100% | residual activity [13] 82% | inhibition [14] -9.96%

O=C1CCc2cc(Nc3cc(OC4CCOCC4)c([N+](=O)[O-])cc3Cl)ccc2N1
inactive: residual activity [1] 78% | inhibition [15] 2.86% | residual activity [2] 100% | inhibition [16] 13% | residual activity [3] 77% | inhibition [17] 7.73% | residual activity [5] 100% | residual activity [18] 94% | residual activity [6] 92% | residual activity [7] 94% | residual activity [8] 81% | residual activity [10] 100% | inhibition [19] -8.76% | residual activity [11] 96% | residual activity [20] 100% | residual activity [12] 94% | residual activity [13] 83%

Source: ChEMBL document CHEMBL4507304, “Data for DCP probe TP-021” (2021)
